Reference: ChEMBL document CHEMBL3991601, “The target landscape of clinical kinase drugs” (Science, 2017)
Calls of active or inactive are those of the source.

How the values were obtained:
[1] = molecular target: T1, Serine/threonine-protein kinase LATS1 (Homo sapiens, UniProt O95835)
T1 sequence (O95835 whole entry): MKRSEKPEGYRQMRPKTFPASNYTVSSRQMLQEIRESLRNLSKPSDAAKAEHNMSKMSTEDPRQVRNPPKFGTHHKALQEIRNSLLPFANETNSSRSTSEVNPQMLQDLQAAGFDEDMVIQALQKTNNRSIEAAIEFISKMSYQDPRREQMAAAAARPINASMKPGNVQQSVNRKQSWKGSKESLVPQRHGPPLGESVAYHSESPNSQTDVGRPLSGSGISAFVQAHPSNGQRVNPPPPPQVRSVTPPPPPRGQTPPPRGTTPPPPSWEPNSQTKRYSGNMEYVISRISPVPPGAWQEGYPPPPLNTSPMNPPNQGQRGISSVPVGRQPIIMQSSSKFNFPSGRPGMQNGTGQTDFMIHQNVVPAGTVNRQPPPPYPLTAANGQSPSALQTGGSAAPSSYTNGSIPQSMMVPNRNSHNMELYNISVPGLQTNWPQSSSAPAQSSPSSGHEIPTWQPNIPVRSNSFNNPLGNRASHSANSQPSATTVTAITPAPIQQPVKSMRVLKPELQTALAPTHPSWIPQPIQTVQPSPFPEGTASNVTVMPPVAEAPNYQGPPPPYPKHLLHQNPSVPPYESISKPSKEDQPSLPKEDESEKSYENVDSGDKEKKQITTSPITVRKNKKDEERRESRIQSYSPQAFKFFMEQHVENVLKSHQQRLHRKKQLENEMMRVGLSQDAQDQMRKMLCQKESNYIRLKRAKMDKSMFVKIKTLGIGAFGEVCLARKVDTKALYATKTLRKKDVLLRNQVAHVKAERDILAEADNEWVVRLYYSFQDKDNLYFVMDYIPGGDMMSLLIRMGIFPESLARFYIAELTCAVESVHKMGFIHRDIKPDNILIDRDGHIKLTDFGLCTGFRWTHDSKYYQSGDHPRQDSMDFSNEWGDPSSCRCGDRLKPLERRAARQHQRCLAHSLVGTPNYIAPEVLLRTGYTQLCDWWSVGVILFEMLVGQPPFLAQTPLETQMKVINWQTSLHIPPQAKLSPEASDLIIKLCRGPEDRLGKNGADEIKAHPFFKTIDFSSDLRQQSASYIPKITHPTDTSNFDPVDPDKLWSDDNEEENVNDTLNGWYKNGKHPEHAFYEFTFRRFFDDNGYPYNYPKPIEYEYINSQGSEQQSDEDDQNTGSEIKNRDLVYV

[2] = molecular target: Serine/threonine-protein kinase B-raf (Homo sapiens, UniProt P15056)
Chain of Serine/threonine-protein kinase B-raf (P15056 whole entry): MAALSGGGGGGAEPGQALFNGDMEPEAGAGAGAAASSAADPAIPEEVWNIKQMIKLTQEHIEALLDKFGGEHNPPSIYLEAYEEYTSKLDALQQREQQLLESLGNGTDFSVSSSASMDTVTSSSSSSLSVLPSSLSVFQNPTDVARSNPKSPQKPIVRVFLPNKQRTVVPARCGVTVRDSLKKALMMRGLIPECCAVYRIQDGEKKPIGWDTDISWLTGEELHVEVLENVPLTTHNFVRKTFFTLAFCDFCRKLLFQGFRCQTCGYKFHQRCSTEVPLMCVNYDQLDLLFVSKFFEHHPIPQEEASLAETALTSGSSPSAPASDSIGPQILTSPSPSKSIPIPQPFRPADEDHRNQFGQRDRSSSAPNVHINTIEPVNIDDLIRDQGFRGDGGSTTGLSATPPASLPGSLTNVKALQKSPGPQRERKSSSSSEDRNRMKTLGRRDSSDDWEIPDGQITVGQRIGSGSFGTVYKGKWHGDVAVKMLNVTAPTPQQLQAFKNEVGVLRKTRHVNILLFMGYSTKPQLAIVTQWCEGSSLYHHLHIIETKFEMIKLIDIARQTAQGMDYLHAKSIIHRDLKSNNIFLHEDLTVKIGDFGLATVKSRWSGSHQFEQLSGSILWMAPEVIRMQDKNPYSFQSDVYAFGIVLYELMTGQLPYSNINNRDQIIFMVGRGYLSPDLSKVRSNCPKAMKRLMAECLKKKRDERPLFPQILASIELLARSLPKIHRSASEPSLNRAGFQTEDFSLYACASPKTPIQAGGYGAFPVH

[3] = molecular target: T2, Probable ATP-dependent RNA helicase DDX6 (Homo sapiens, UniProt P26196)
T2 sequence (P26196 whole entry): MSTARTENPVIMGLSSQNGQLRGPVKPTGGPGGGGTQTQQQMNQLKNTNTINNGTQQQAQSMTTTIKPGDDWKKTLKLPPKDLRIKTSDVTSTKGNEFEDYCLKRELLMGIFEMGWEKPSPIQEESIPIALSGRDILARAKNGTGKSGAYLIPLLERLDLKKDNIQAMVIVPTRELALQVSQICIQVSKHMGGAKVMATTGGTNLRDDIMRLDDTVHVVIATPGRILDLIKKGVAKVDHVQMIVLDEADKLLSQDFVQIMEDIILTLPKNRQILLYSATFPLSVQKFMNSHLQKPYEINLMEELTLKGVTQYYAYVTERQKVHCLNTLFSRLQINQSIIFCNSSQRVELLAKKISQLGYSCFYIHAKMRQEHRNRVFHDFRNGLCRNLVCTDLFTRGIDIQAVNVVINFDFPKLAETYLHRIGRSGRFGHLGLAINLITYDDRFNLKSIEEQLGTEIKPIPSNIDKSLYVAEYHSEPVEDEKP

[4] = molecular target: Ribosomal protein S6 kinase alpha-4 (Homo sapiens, UniProt O75676)
Chain of Ribosomal protein S6 kinase alpha-4 (O75676 whole entry): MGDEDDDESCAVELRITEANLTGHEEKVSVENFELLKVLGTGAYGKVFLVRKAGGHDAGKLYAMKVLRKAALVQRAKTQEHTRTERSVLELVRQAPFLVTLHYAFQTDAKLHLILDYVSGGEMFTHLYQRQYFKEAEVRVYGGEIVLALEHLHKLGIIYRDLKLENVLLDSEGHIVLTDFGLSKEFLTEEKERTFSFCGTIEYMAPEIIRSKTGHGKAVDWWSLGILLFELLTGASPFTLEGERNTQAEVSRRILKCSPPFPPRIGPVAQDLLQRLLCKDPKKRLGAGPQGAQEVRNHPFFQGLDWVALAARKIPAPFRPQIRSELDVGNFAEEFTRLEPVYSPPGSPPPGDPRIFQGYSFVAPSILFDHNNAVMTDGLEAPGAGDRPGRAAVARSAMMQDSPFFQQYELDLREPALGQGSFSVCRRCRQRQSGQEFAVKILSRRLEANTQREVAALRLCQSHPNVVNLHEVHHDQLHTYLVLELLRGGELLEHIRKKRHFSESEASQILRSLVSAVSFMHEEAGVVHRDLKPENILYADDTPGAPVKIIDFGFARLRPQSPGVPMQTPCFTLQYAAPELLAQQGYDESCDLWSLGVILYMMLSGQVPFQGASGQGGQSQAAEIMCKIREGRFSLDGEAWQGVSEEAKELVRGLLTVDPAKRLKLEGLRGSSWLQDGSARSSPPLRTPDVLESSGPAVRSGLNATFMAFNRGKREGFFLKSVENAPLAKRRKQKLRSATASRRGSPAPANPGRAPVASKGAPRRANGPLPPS

[5] = molecular target: Mitotic checkpoint serine/threonine-protein kinase BUB1 (Homo sapiens, UniProt O43683)
Chain of Mitotic checkpoint serine/threonine-protein kinase BUB1 (O43683 whole entry): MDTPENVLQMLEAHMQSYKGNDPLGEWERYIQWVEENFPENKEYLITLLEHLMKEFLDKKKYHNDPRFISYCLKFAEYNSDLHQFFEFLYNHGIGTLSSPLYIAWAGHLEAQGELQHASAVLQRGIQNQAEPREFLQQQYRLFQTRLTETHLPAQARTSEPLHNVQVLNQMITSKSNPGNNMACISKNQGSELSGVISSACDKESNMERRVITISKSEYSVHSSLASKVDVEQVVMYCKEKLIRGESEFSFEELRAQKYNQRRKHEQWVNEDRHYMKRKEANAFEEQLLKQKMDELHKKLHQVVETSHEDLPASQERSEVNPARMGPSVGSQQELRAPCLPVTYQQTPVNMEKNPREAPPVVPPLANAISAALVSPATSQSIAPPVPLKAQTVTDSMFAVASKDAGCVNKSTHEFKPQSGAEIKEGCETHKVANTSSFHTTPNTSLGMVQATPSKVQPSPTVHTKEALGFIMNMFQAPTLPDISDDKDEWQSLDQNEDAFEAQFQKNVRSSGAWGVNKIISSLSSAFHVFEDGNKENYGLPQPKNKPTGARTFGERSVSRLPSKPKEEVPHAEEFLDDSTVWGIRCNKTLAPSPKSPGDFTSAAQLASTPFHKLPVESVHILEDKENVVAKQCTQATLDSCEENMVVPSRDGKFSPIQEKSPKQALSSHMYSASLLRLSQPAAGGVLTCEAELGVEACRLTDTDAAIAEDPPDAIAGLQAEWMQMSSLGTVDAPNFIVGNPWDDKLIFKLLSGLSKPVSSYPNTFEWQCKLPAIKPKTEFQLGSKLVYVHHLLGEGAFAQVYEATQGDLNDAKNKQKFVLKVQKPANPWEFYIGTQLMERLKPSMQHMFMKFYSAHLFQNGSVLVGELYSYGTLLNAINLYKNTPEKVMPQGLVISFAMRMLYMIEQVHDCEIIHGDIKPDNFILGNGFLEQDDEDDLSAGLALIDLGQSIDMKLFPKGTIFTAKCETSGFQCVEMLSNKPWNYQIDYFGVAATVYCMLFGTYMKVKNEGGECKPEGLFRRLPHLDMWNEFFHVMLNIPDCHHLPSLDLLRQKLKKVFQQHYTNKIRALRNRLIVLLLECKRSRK

[6] = molecular target: Mitogen-activated protein kinase 3 (Homo sapiens, UniProt P27361)
Chain of Mitogen-activated protein kinase 3 (P27361 whole entry): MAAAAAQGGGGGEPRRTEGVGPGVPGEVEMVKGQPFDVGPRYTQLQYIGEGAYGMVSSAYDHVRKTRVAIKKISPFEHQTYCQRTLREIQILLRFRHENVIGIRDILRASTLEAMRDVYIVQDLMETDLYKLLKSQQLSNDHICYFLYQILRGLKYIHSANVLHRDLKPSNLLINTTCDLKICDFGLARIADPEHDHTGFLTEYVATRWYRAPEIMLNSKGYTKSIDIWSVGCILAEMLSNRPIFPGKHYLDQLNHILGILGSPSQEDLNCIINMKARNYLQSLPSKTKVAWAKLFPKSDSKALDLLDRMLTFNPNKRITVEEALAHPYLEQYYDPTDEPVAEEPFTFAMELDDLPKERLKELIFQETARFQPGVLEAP

[7] = molecular target: 5'-AMP-activated protein kinase catalytic subunit alpha-1 (Homo sapiens, UniProt Q13131)
Chain of 5'-AMP-activated protein kinase catalytic subunit alpha-1 (Q13131 whole entry): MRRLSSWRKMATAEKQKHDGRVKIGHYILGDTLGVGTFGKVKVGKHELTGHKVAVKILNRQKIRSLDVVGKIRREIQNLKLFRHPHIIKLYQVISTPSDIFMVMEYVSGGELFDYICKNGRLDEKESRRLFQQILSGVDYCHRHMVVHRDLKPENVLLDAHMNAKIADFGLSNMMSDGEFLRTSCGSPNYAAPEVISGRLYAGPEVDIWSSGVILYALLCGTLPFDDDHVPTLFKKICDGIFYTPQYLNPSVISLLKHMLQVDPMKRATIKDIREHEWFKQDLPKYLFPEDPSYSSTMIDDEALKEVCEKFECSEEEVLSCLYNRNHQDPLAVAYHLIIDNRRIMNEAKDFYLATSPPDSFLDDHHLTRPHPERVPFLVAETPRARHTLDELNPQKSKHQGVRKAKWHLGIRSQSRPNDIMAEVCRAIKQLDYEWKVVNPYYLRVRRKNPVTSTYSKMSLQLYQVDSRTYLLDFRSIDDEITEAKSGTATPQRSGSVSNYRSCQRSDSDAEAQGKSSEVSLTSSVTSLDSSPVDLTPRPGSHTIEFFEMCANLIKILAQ

ADP/ATP translocase 2 = molecular target: T3, ADP/ATP translocase 2 (Homo sapiens, UniProt P05141)
T3 sequence (P05141 whole entry): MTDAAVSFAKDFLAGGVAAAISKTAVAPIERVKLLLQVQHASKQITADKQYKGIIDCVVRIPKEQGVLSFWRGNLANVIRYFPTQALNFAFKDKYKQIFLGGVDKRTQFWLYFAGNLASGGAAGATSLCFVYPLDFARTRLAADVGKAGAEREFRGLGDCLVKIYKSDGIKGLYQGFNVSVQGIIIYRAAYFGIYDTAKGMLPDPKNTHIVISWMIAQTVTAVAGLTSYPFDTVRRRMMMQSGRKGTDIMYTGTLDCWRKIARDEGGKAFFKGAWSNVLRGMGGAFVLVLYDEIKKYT

[8] = molecular target: T4, Cysteine--tRNA ligase, cytoplasmic (Homo sapiens, UniProt P49589)
T4 sequence (P49589 whole entry): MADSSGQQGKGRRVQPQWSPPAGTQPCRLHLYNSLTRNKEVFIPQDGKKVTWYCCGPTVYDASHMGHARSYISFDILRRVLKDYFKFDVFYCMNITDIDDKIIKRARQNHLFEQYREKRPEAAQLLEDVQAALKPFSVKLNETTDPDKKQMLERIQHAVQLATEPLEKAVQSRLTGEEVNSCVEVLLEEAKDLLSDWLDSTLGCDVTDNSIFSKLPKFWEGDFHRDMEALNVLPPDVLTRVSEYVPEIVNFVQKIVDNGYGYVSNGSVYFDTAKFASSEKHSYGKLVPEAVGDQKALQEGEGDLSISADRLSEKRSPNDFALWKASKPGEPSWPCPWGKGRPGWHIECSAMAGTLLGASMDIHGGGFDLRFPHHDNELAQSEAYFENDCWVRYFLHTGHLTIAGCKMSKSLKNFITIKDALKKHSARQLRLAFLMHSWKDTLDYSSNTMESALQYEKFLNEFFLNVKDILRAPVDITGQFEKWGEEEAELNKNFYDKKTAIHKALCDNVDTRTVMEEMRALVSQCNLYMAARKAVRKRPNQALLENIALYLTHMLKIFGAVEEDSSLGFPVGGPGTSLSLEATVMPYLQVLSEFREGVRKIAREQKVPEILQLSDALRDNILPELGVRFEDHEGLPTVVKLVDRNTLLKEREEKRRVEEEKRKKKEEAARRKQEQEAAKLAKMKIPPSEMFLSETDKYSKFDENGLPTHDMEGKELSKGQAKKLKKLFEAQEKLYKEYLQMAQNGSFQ

Midasin = Midasin (Homo sapiens, UniProt Q9NU22)
Note: in the data inactive means no Kd found up to 30 µM.

Row | Structure (SMILES) | Kd [1] | Kd [2] | Kd [3] | Kd [4] | Kd [5] | Kd [6] | Kd [7] | Kd (ADP/ATP translocase 2) | Kd [8] | Kd (Midasin)
1 | CCNC(=O)C#Cc1ccc2c(c1)NC(=O)/C2=C(\Nc1ccc(CN(C)C)cc1)c1ccccc1 | 0.635 µM (active) | > 30 µM (inactive) | > 30 µM (inactive) | 1.46 µM (active) | > 30 µM (inactive) | > 30 µM (inactive) | 3.05 µM (active) | > 30 µM (inactive) | > 30 µM (inactive) | 1.32 µM
2 | C=CC(=O)N1CCC[C@H](n2c(=O)n(-c3ccc(Oc4ccccc4)cc3)c3c(N)ncnc32)C1 | > 30 µM (inactive) | > 30 µM (inactive) | > 30 µM (inactive) | > 30 µM (inactive) | > 30 µM (inactive) | > 30 µM (inactive) | > 30 µM (inactive) | > 30 µM (inactive) | > 30 µM (inactive) | > 30 µM (inactive)
3 | Cc1nc2cc(-c3nn(C(C)C)c4ncnc(N)c34)ccc2o1 | > 30 µM (inactive) | > 30 µM (inactive) | > 30 µM (inactive) | > 30 µM (inactive) | > 30 µM (inactive) | > 30 µM (inactive) | > 30 µM (inactive) | > 30 µM (inactive) | > 30 µM (inactive) | > 30 µM (inactive)
4 | Nc1ncnc2c1c(-c1cccc(OCc3ccccc3)c1)cn2[C@H]1C[C@@H](CN2CCC2)C1 [AEW-541] | 3.88 µM (active) | > 30 µM (inactive) | > 30 µM (inactive) | > 30 µM (inactive) | > 30 µM (inactive) | > 30 µM (inactive) | > 30 µM (inactive) | > 30 µM (inactive) | > 30 µM (inactive) | > 30 µM (inactive)
5 | COc1cc([C@@H]2c3cc4c(cc3[C@H](O)[C@H]3COC(=O)[C@@H]23)OCO4)cc(OC)c1OC [AXL-1717] | > 30 µM (inactive) | > 30 µM (inactive) | > 30 µM (inactive) | > 30 µM (inactive) | > 30 µM (inactive) | > 30 µM (inactive) | > 30 µM (inactive) | > 30 µM (inactive) | > 30 µM (inactive) | > 30 µM (inactive)
6 | Cn1cnc2c(F)c(Nc3ccc(Br)cc3F)c(C(=O)NOCCO)cc21 [BINIMETINIB] | > 30 µM (inactive) | > 30 µM (inactive) | > 30 µM (inactive) | > 30 µM (inactive) | > 30 µM (inactive) | > 30 µM (inactive) | > 30 µM (inactive) | > 30 µM (inactive) | > 30 µM (inactive) | > 30 µM (inactive)
7 | CCn1c(C(=O)N(C2CC2)C2CC2)cc2c3c(ncn3C)c(Nc3cc(C)n(C)n3)nc21 [BMS-911543] | > 30 µM (inactive) | > 30 µM (inactive) | > 30 µM (inactive) | > 30 µM (inactive) | > 30 µM (inactive) | > 30 µM (inactive) | > 30 µM (inactive) | > 30 µM (inactive) | > 30 µM (inactive) | > 30 µM (inactive)
8 | COc1cc2ncnc(Oc3cccc(NC(=O)Nc4cc(C(C)(C)C(F)(F)F)on4)c3)c2cc1OC [CEP-32496] | > 30 µM (inactive) | 2.85 µM (active) | > 30 µM (inactive) | > 30 µM (inactive) | > 30 µM (inactive) | > 30 µM (inactive) | > 30 µM (inactive) | > 30 µM (inactive) | > 30 µM (inactive) | > 30 µM (inactive)
9 | CCCCCCCCCCCCCCCCCCOP(=O)([O-])OC1CC[N+](C)(C)CC1 [PERIFOSINE] | > 30 µM (inactive) | > 30 µM (inactive) | > 30 µM (inactive) | > 30 µM (inactive) | – | > 30 µM (inactive) | > 30 µM (inactive) | > 30 µM (inactive) | > 30 µM (inactive) | > 30 µM (inactive)
10 | CN1C/C=C/CCOc2cccc(c2)-c2ccnc(n2)Nc2cccc(c2)C1 [ZOTIRACICLIB] | > 30 µM (inactive) | > 30 µM (inactive) | > 30 µM (inactive) | > 30 µM (inactive) | – | > 30 µM (inactive) | > 30 µM (inactive) | > 30 µM (inactive) | > 30 µM (inactive) | > 30 µM (inactive)
